This passage reports TGI and GI50 results from PubChem BioAssay (NCI).

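Following 48 hours of exposure in 96-well plates, responses at five concentrations were used to interpolate endpoints linearly. Here, GI50 denotes the concentration required for 50% inhibition of growth. TGI is the concentration that stops growth completely.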

Test systems include HCC-2998 colon; SNB-75 CNS; ACHN renal; NCI-H522 lung; RXF 393 renal; 786-0 renal; HOP-62 NSCLC; IGROV1 ovarian; OVCAR-3 ovarian.
Experiment in all cases: growth of human tumour cells (NCI), 48 h

For `O=c1cc(-c2ccccn2)[nH]c2cc(F)ccc12`, the TGI in the experiment with HCC-2998 colon, in the experiment with SNB-75 CNS, in the experiment with ACHN renal, in the experiment with NCI-H522 lung, in the experiment on RXF 393 renal and with 786-0 renal was more than 100 µM each time. Moreover, the TGI with HOP-62 NSCLC, in the experiment on IGROV1 ovarian and in the experiment with OVCAR-3 ovarian was more than 100 µM throughout.

For the compound `O=C(CSc1nc(-c2ccccc2)c(-c2ccccc2)[nH]1)NNC(=S)Nc1ccccc1`, the TGI in the experiment with HCC-2998 colon, with SNB-75 CNS, with ACHN renal, in the experiment with NCI-H522 lung, with 786-0 renal and with HOP-62 NSCLC was more than 100 µM in each case. In addition, the TGI with IGROV1 ovarian and with OVCAR-3 ovarian was more than 100 µM throughout.

Turning to `CCC[CH2][Sn]1([CH2]CCC)[O]C(=O)c2ccc(N)cc2[O]1`, the GI50 in the experiment with HCC-2998 colon is 0.855 µM; in the experiment on SNB-75 CNS, 0.116 µM; in the experiment on ACHN renal it was 0.655 µM; in the experiment with NCI-H522 lung it was 0.048 µM; in the experiment on RXF 393 renal it was 0.112 µM; in the experiment on 786-0 renal, 0.41 µM. Moreover, the GI50 in the experiment with HOP-62 NSCLC was 1.35 µM; in the experiment on IGROV1 ovarian it was 1.51 µM; in the experiment with OVCAR-3 ovarian, 1.24 µM. In addition, the TGI with HCC-2998 colon came to 2.48 µM; in the experiment on SNB-75 CNS, 1.84 µM; in the experiment with ACHN renal it was 1.92 µM; in the experiment on NCI-H522 lung, 0.179 µM; with RXF 393 renal, 0.427 µM; with 786-0 renal, 1.61 µM. Moreover, the values for the TGI in the experiment on HOP-62 NSCLC, in the experiment with IGROV1 ovarian and in the experiment on OVCAR-3 ovarian were 2.82 µM, 2.97 µM and 2.52 µM, respectively.

In the case of `Clc1ccc(-c2c(C3=NCCN3)nnn2-c2ccccc2)cc1`, the TGI in the experiment on HCC-2998 colon, in the experiment on SNB-75 CNS, with ACHN renal, in the experiment on NCI-H522 lung, with RXF 393 renal and with 786-0 renal was more than 100 µM in each case. Moreover, the TGI in the experiment on HOP-62 NSCLC, in the experiment with IGROV1 ovarian and in the experiment on OVCAR-3 ovarian was more than 100 µM each time.

Turning to `CCCCCCCCCCCCCC(=O)NCC(OCC)OCC`, the TGI in the experiment on HCC-2998 colon, in the experiment on SNB-75 CNS, with ACHN renal, in the experiment on NCI-H522 lung, with RXF 393 renal and in the experiment on 786-0 renal was more than 100 µM in each case. Moreover, the TGI in the experiment with HOP-62 NSCLC, in the experiment on IGROV1 ovarian and in the experiment with OVCAR-3 ovarian was more than 100 µM each time.

As for `CC1(C)C(=O)C=CC2(C)C1CC(O)C1(C)C2CCC2(C)C(c3ccoc3)OC(=O)C3OC321` (stereo unspecified), the TGI in the experiment on HCC-2998 colon came to 26.2 µM; with SNB-75 CNS, 39.5 µM; in the experiment with ACHN renal, 30.3 µM; with NCI-H522 lung, 27.1 µM; in the experiment with RXF 393 renal, 33.6 µM; in the experiment with 786-0 renal, 28.3 µM. Further, the TGI in the experiment with HOP-62 NSCLC was found to be 85.7 µM; in the experiment with IGROV1 ovarian it was 33.9 µM; in the experiment on OVCAR-3 ovarian, 36 µM.

Regarding `COC(=O)[C@H]1N[C@@H](C(=O)OC)C23CCC[C@H]2CC[C@]1(C(OC)OC)C3`, the TGI in the experiment on HCC-2998 colon, in the experiment with SNB-75 CNS, with ACHN renal, with NCI-H522 lung, with 786-0 renal and with HOP-62 NSCLC was more than 100 µM in each case. Also, the TGI with IGROV1 ovarian is more than 100 µM.

As for `COc1cc(C2c3cc4c(cc3[C@@H](OCCN(C)C)C3COC(=O)[C@H]23)OCO4)cc(OC)c1O` (stereo partly specified), the TGI in the experiment on SNB-75 CNS came to 3.75 µM; in the experiment on ACHN renal, 0.197 µM; with NCI-H522 lung, 1.7 µM; in the experiment with RXF 393 renal, 1.97 µM; in the experiment on 786-0 renal, 0.663 µM; in the experiment with HOP-62 NSCLC it was 0.241 µM. Also, the results for the TGI in the experiment on IGROV1 ovarian and in the experiment on OVCAR-3 ovarian were 4.97 µM and 5.15 µM, respectively.

With `O=C(O)Cc1ccccc1CCc1ccccc1Cl`, the TGI in the experiment on HCC-2998 colon, in the experiment with SNB-75 CNS, in the experiment on NCI-H522 lung, with RXF 393 renal, in the experiment with 786-0 renal and with IGROV1 ovarian was more than 100 µM in each case. Further, the TGI with OVCAR-3 ovarian was more than 100 µM.

Regarding `COc1ccc(N2C(=O)C3c4[nH]c5ccccc5c4C4CCCCCCC4C3C2=O)cc1` (stereo unspecified), the TGI in the experiment on HCC-2998 colon is more than 100 µM; with SNB-75 CNS, 27.8 µM; in the experiment with ACHN renal, 18.7 µM; with NCI-H522 lung, 36.5 µM; in the experiment on 786-0 renal, 8.29 µM; with HOP-62 NSCLC, 26 µM. Moreover, the TGI in the experiment on IGROV1 ovarian came to 59.1 µM; in the experiment with OVCAR-3 ovarian, 16.8 µM.

Take `CN1C(=O)C2C=CC1C1CCC2N(C)C1=O` (stereo unspecified): the TGI with HCC-2998 colon, in the experiment with SNB-75 CNS, in the experiment on NCI-H522 lung, with RXF 393 renal, in the experiment on 786-0 renal and in the experiment with IGROV1 ovarian was more than 100 µM in each case. This compound also had a TGI with OVCAR-3 ovarian of more than 100 µM.

On to `CCCCN(CCCC)CCc1c(C)cc(C)c(CCN(CCCC)CCCC)c1O`, for which the GI50 with HCC-2998 colon was 3.17 µM; in the experiment with SNB-75 CNS it was 2.52 µM; with ACHN renal it was 3.47 µM; with NCI-H522 lung, 2.59 µM; in the experiment on RXF 393 renal, 2.4 µM; in the experiment on 786-0 renal, 2.96 µM. Also, the GI50 is 3.3 µM in the experiment on HOP-62 NSCLC and 3.69 µM with IGROV1 ovarian. For the same compound, the TGI in the experiment on HCC-2998 colon is 32.6 µM; in the experiment on SNB-75 CNS, 40.3 µM; in the experiment with ACHN renal, more than 100 µM; with NCI-H522 lung it was 7.54 µM; in the experiment on RXF 393 renal, 7.23 µM; in the experiment on 786-0 renal, 9.93 µM. For the same compound, the TGI is 16.8 µM in the experiment on HOP-62 NSCLC and 35.6 µM in the experiment on IGROV1 ovarian.

On to `CCOC(=O)C1=C(Nc2ccc(Cl)c(Cl)c2)OC/C1=N\NC(=O)Cc1ccccc1`, for which the TGI in the experiment with HCC-2998 colon, in the experiment on SNB-75 CNS, with NCI-H522 lung, in the experiment on RXF 393 renal, in the experiment with 786-0 renal and in the experiment on HOP-62 NSCLC was more than 100 µM throughout. Further, the TGI in the experiment on IGROV1 ovarian and in the experiment with OVCAR-3 ovarian was more than 100 µM in each case.

For `COc1cc(C2c3cc4c(cc3[C@@H](N(C)C)[C@H]3COC(=O)C23)OCO4)cc(OC)c1O` (stereo partly specified), the TGI in the experiment on HCC-2998 colon was more than 100 µM; in the experiment with SNB-75 CNS, more than 100 µM; in the experiment with ACHN renal, more than 100 µM; in the experiment with NCI-H522 lung, 18.8 µM; in the experiment on RXF 393 renal it was more than 100 µM; with 786-0 renal, more than 100 µM. For the same compound, the TGI in the experiment with HOP-62 NSCLC and with IGROV1 ovarian was more than 100 µM throughout.
